# Results as given in patent US20200048267A1, “OGA INHIBITOR COMPOUNDS” (Janssen Pharmaceutica NV, priority 2017, published 2020).
# Experiments:
# [1] = molecular target: T1, recombinant human Meningioma Expressed Antigen 5 (MGEA5), also referred to as O-GlcNAcase (OGA) (Homo sapiens, UniProt O60502); assay: OGA biochemical assay (inhibition of FM-GlcNAc hydrolysis, fluorescence); conditions: for Emax: read-out: ENZYMATIC Emax (%); for IC50: read-out: ENZYMATIC hOGA, pIC50 (converted)
# T1 construct: Full length OGA enzyme was purchased at OriGene (cat # TP322411); purchased OriGene TP322411
# T1 sequence (O60502 1-916): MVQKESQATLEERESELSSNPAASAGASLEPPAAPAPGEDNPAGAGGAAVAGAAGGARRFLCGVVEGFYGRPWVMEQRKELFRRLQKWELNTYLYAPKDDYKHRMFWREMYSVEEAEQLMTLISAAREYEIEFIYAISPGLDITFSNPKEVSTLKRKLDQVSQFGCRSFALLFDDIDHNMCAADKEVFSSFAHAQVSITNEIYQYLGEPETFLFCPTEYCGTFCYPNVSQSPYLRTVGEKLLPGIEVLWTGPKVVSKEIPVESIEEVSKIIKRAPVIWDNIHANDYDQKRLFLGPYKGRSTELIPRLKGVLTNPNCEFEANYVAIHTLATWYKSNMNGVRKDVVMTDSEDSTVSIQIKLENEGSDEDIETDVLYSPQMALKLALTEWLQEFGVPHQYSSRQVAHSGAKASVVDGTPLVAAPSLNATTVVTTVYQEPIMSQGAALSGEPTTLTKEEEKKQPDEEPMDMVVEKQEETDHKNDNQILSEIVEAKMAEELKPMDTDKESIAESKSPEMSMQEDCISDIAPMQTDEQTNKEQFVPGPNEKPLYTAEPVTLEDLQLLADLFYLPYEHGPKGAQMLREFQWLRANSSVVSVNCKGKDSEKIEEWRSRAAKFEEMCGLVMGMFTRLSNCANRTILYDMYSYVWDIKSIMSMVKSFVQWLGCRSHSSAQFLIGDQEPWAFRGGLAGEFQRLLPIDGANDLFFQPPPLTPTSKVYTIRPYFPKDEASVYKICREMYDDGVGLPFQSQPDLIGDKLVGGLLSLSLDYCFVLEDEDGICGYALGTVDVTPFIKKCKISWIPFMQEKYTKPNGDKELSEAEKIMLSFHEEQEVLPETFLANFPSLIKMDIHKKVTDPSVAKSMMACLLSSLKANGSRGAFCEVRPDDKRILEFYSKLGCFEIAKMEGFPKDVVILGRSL
# From the text: The assay is based on the inhibition of the hydrolysis of fluorescein mono-β-D-N-Acetyl-Glucosamine (FM-GlcNAc) (Mariappa et al. 2015, Biochem J 470:255) by the recombinant human Meningioma Expressed Antigen 5 (MGEA5), also referred to as O-GlcNAcase (OGA). The hydrolysis FM-GlcNAc (Marker Gene technologies, cat # M1485) results in the formation of B-D-N-glucosamineacetate and fluorescein. The fluorescence of the latter can be measured at excitation wavelength 485 nm and emission wavelength 538 nm. An increase in enzyme activity results in an increase in fluorescence signal. Full length OGA enzyme was purchased at OriGene (cat # TP322411). The enzyme was stored in 25 mM Tris.HCl, pH 7.3, 100 mM glycine, 10% glycerol at −20° C. Thiamet G and GlcNAcStatin were tested as reference compounds (Yuzwa et al. 2008 Nature Chemical Biology 4:483; Yuzwa et al. 2012 Nature Chemical Biology 8:393). The assay was performed in 200 mM Citrate/phosphate buffer supplemented with 0.005% Tween-20. 35.6 g Na2HPO4 2 H2O (Sigma, # C0759) were dissolved in 1 L water to obtain a 200 mM solution. 19.2 g citric acid (Merck, # 1.06580) was dissolved in 1 L water to obtain a 100 mM solution. pH of the sodium phosphate solution was adjusted with the citric acid solution to 7.2. The buffer to stop the reaction consists of a 500 mM Carbonate buffer, pH 11.0. 734 mg FM-GlcNAc were dissolved in 5.48 mL DMSO to obtain a 250 mM solution and was stored at −20° C. OGA was used at 2 nM concentration and FM-GlcNAc at a 100 uM final concentration. Dilutions were prepared in assay buffer.
# 50 nl of a compound dissolved in DMSO was dispensed on Black Proxiplate™ 384 Plus Assay plates (Perkin Elmer, #6008269) and 3 μl fl-OGA enzyme mix added subsequently. Plates were pre-incubated for 60 min at room temperature and then 2 μl FM-GlcNAc substrate mix added. […] Plates were briefly centrifuged for 1 min at 1000rpm and incubate at room temperature for 6 h. To stop the reaction 5 μl STOP buffer were added and plates centrifuge again 1 min at 1000 rpm.
# Fluorescence was quantified in the Thermo Scientific Fluoroskan Ascent or the PerkinElmer EnVision with excitation wavelength 485 nm and emission wavelength 538 nm.
# For analysis a best-fit curve is fitted by a minimum sum of squares method. From this an IC50 value and Hill coefficient was obtained. High control (no inhibitor) and low control (saturating concentrations of standard inhibitor) were used to define the minimum and maximum values.
# [2] = molecular target: T2, OGA (Homo sapiens, UniProt O60502); assay: OGA cellular assay (ICC detection of O-GlcNAcylated proteins in HEK293 cells inducible for P301L mutant human Tau); type: cell-based; conditions: 6 hours incubation; for EC50: read-out: CELLULAR hOGA, pEC50 (converted)
# T2 construct: HEK293 cells inducible for P301L mutant human Tau (isoform 2N4R) were established at Janssen; endogenous in cells; host or cells: HEK293 cells inducible for P301L mutant human Tau (2N4R)
# T2 sequence (O60502 1-916): T1 sequence (O60502 1-916)
# Procedure: HEK293 cells inducible for P301L mutant human Tau (isoform 2N4R) were established at Janssen. Thiamet-G was used for both plate validation (high control) and as reference compound (reference EC50 assay validation). OGA inhibition is evaluated through the immunocytochemical (ICC) detection of O-GlcNAcylated proteins by the use of a monoclonal antibody (CTD110.6; Cell Signaling, #9875) detecting O-GlcNAcylated residues as previously described (Dorfmueller et al. 2010 Chemistry & biology, 17:1250). Inhibition of OGA will result in an increase of O-GlcNAcylated protein levels resulting in an increased signal in the experiment. Cell nuclei are stained with Hoechst to give a cell culture quality control and a rough estimate of immediate compounds toxicity, if any. ICC pictures are imaged with a Perkin Elmer Opera Phenix plate microscope and quantified with the provided software Perkin Elmer Harmony 4.1.
# Cells were propagated in DMEM high Glucose (Sigma, #D5796) following standard procedures. 2 days before the cell assay cells are split, counted and seeded in Poly-D-Lysine (PDL) coated 96-wells (Greiner, #655946) plate at a cell density of 12,000 cells per cm^2 (4,000 cells per well) in 100 µl of Assay Medium (Low Glucose medium is used to reduce basal levels of GlcNAcylation) (Park et al. 2014 The Journal of biological chemistry 289:13519). At the day of compound test medium from assay plates was removed and replenished with 90 μl of fresh Assay Medium. 10 μl of compounds at a 10 fold final concentration were added to the wells. Plates were centrifuged shortly before incubation in the cell incubator for 6 hours. DMSO concentration was set to 0.2%. Medium is discarded by applying vacuum. For staining of cells medium was removed and cells washed once with 100 μl D-PBS (Sigma, #D8537). From next step onwards unless other stated assay volume was always 50 μl and incubation was performed without agitation and at room temperature. Cells were fixed in 50 μl of a 4% paraformaldehyde (PFA, Alpha aesar, # 043368) PBS solution for 15 minutes at room temperature. […] Before analysis samples were washed 2 times manually for 5 minutes in ICC base buffer.
# Imaging is performed using Perkin Elmer Phenix Opera using a water 20× objective and recording 9 fields per well. Intensity readout at 488 nm is used as a measure of O-GlcNAcylation level of total proteins in wells. To assess potential toxicity of compounds nuclei were counted using the Hoechst staining. IC50-values are calculated using parametric non-linear regression model fitting. As a maximum inhibition Thiamet G at a 200 uM concentration is present on each plate. In addition, a concentration response of Thiamet G is calculated on each plate.
Structure (SMILES),Emax [1],IC50 [1],ENZYMATIC Emax (%) [1],Emax [2],EC50 [2],ENZYMATIC hOGA; pIC50 [1]
"CC(=O)Nc1ncc(CN2CCC3(CCN(c4cc(C)nc(C)c4)C3)C2)s1 (single isomer, unassigned) [Product 2]",101%,0.0102 µM,,,,
"CC(=O)Nc1ncc(CN2CCC3(CCN(c4cc(C)nc(C)c4)C3)C2)s1 (single isomer, unassigned) [Product 3]",,0.00372 µM,100.9%,100%,0.282 µM,
"Cc1cc(N2CCC3(CCN(Cc4ccc5nccnc5c4)C3)C2)cc(C)n1 (single isomer, unassigned) [Product 4]",98.8%,0.224 µM,,23.4%,> 10 µM,
"Cc1cc(N2CCC3(CCN(Cc4ccc5nccnc5c4)C3)C2)cc(C)n1 (single isomer, unassigned) [Product 5]",,0.219 µM,98.6%,,,
"Cc1cc(N2CCC3(CCN(C(C)c4ccc5nccnc5c4)C3)C2)cc(C)n1 (single isomer, unassigned) [Product 7]",98.6%,0.0724 µM,,62.9%,3.8 µM,
CC(=O)Nc1ncc(CN2CCC3(CCN(c4cc(C)nc(C)c4)C3)C2)s1 (stereo not drawn) [Product 1],102%,,,123%,0.141 µM,8.22
Cc1cc(N2CCC3(CCN(C(C)c4ccc5nccnc5c4)C3)C2)cc(C)n1 (stereo not drawn) [Product 6],97.8%,0.0977 µM,,,,
Cc1cc(N2CCC3(CCN(C(C)c4ccc5c(c4)OCO5)C3)C2)cc(C)n1 (stereo not drawn) [Product 8],96.6%,0.1 µM,,,,
CC(=O)Nc1ncc(CN2CCC3(CCN(c4cc(C)nc(C)n4)C3)C2)s1 (stereo not drawn) [Product 9],101%,,,85.4%,0.17 µM,7.88
Cc1cc(N2CCC3(CCN(C(C)c4ccc5c(c4)OCO5)C3)C2)nc(C)n1 (stereo not drawn) [Product 10],99.8%,0.135 µM,,,,
CC(=O)Nc1ncc(CN2CCC3(CCN(c4cnccn4)C3)C2)s1 (stereo not drawn) [Product 11],99.1%,0.0813 µM,,,,
CC(=O)Nc1ncc(CN2CCC3(CCN(c4cncc(C)n4)C3)C2)s1 (stereo not drawn) [Product 12],101%,0.0347 µM,,,,
CC(=O)Nc1ncc(CN2CCC3(CCN(c4cncc(C5CC5)n4)C3)C2)s1 (stereo not drawn) [Product 13],100%,,,92.3%,,7.69
c1cnc2cc(CN3CCC4(CCN(c5cncc(C6CC6)n5)C4)C3)ccc2n1 (stereo not drawn) [Product 14],94.2%,0.724 µM,,,,
CC(c1ccc2nccnc2c1)N1CCC2(CCN(c3cncc(C4CC4)n3)C2)C1 (stereo not drawn) [Product 15],93.4%,0.229 µM,,,,
CC(=O)Nc1cnc(N2CCC3(CCN(C(C)c4ccc5c(c4)OCO5)C3)C2)nc1 (stereo not drawn) [Product 16],79%,2.69 µM,,19.5%,> 10 µM,
CC(=O)Nc1ncc(CN2CCC3(CCN(Cc4cc(C)nc(C)c4)C3)C2)s1 (stereo not drawn) [Product 17],90.6%,0.562 µM,,,,
CCc1cncc(N2CCC3(CCN(Cc4cnc(NC(C)=O)s4)C3)C2)n1 (stereo not drawn) [Product 19],102%,0.117 µM,,56.4%,0.871 µM,
Cc1cc(N2CCC3(CCN(Cc4ccc5scnc5c4)C3)C2)nc(C)n1 (stereo not drawn) [Product 21],98.1%,0.17 µM,,23.6%,> 1 µM,
CC(=O)Nc1ncc(CN2CCC3(CCN(Cc4ccc(C(F)(F)F)cn4)C3)C2)s1 (stereo not drawn) [Product 35],84.4%,2 µM,,,,
CC(=O)Nc1ncc(CN2CCC3(CCN(c4nc(C)cnc4C)C3)C2)s1 (stereo not drawn) [Product 40],98.4%,0.0661 µM,,,,
CC(=O)Nc1ncc(CN2CCC3(CCN(c4cncnc4)C3)C2)s1 (stereo not drawn) [Product 43],99.8%,0.0537 µM,,,,
CC(=O)Nc1ncc(CN2CCC3(CCN(c4ccc(C)nc4)C3)C2)s1 (stereo not drawn) [Product 44],102%,0.0339 µM,,,,
CC(=O)Nc1ncc(CN2CCC3(CCN(c4cnc(C)nc4)C3)C2)s1 (stereo not drawn) [Product 45],99.2%,0.0617 µM,,,,
CC(=O)Nc1ncc(CN2CCC3(CCN(c4ncc(F)cc4F)C3)C2)s1 (stereo not drawn) [Product 46],99%,0.112 µM,,,,
COc1nc(C)ccc1N1CCC2(CCN(Cc3cnc(NC(C)=O)s3)C2)C1 (stereo not drawn) [Product 53],97.1%,0.309 µM,,,,
CC(=O)Nc1ncc(CN2CCC3(CCN(c4nc(C)ncc4C)C3)C2)s1 (stereo not drawn) [Product 54],101%,0.0282 µM,,,,
CC(=O)Nc1ncc(CN2CCC3(CCN(c4nnc(C)cc4C)C3)C2)s1 (stereo not drawn) [Product 55],99%,0.0457 µM,,,,
CC(=O)Nc1ncc(CN2CCC3(CCN(c4cc(F)ncc4C)C3)C2)s1 (stereo not drawn) [Product 56],100%,0.0513 µM,,,,
